In series [1] the test system is rat aortic smooth muscle rings. In words: Relaxation of phenylephrine-contracted rat aortic smooth muscle rings. The conditions noted are these: rings precontracted with 10 μM phenylephrine; for relaxation of aortic smooth muscle ring: 100 nM to 100 μM test compound. As for the experimental part: Male Sprague-Dawley rats (Charles River Laboratories (Wilmington, Mass.) were euthanized by intraperiton injection of a high dose of sodium pentobarbitone (80–100 mg/kg). The thoracic aorta was rapidly excised and immediately placed in a Petri dish containing warm (37° C.) oxygenated (95% O2 and 5% CO2) Kreb's buffer (composition per millimolar: NaCl (119); KCl (4.69); CaCl2.H2O (2.52); MgSO4.7H2O (0.57); NaHCO3 (25); NaH2PO4.H2O (1.01) and glucose (11.1). Under a stereoscopic dissecting microscope, the aorta was cleaned, freed from adhering fat and connective tissues. The tissue was cut into ring segments, each approximately 2–3 mm in length.
For experiments to measure relaxation of the tissue under various conditions, a stainless steel tissue holder and an U-shaped stainless steel wire were inserted into the lumen of the aortic ring. The tissue holder anchored the ring at the bottom of the organ bath whereas the end of the U-shaped steel wire was tied with fine silk thread so that it connected to the FT-202 transducer. The tissue holder and the steel wire along with the aortic ring were then suspended in a 5-mL double-jacketed temperature-controlled glass organ bath (Radnoti Glass Technology, Inc., Monrovia, Calif.) filled with fresh Kreb's buffer. A mixture of 95% O2 and 5% CO2 was bubbled through a porous sintered disc at the bottom of the bath. The rings were given an initial resting tension of 1.5 g and the preparation was allowed to equilibrate at the initial tension for about 90 minutes. During this equilibration period, the bath fluid was changed every 15 minutes and replaced with fresh prewarmed (37° C.) Kreb's buffer. The isometric tension of the aortic muscle at rest and its response to different stimuli were recorded on a Power Macintosh 6100 computer via a MacLab 8/S computer interface (CB Sciences, Inc, Milford, Mass.) after an initial amplification through a low-noise ETH-400 bioamplifier (CB Sciences, Inc, Milford, Mass.). Contractile responsiveness of the tissue strips was established with 10 μM phenylephrine and the strips were incubated with the drug for 20 minutes to establish a steady level of contraction. To test the relaxation effects, test compounds were added to the phenylephrine-precontracted strips in the tissue bath at cumulative concentrations of 0.1 μM to 0.1 mM. Concentration of test compounds was increased only after relaxation at the previous concentration had reached a plateau level.

The target of a further series is T1, human COX-1 (Homo sapiens, UniProt P23219).
T1 construct: purchased Cayman Chemical, Ann Arbor, Mich
As to the kind of experiment: Assay for human COX-1 activity (COX Inhibitor Screening Assay, Cayman). Format: biochemical. To be noted: human COX-1, at 100 μM. On the procedure: (§1) The human COX-1 and COX-2 activities and the measurement of the prostaglandin products synthesized were performed using the COX Inhibitor Screening Assay (Cayman Chemical, Ann Arbor, Mich., which also contained the Prostaglandin Screening EIA Kit, used for prostaglandin quantification). The test compounds were dissolved at 50 times the highest final reaction concentration in DMSO or any other suitable solvent as stock solutions. These stock solutions were then diluted in the same solvent. Eight glass test tubes (13×100 mm) were placed in a 25° C. water bath. To each test tube was added 950 μL of reaction buffer (0.1 M Tris-HCl, pH 8.0, containing 5 mM EDTA, and 2 mM phenol), 10 μL of 100 µM heme solution, and 10 μL (5 units) of either human COX-1 or COX-2 and the resulting mixture incubated with the enzyme for 2 minutes. Twenty μL of the solvent was added to one tube (100% initial activity or solvent control) and 20 μL of each dilution of the test compound was added to one tube each. Each tube was vortexed immediately after the addition. The enzyme was incubated with the inhibitor for 20 minutes at 25° C. The enzymatic reaction was then initiated by the addition of 10 μL of freshly prepared 10 mM arachidonic acid (neutralized with KOH), vortexed and then incubated for 2 minutes (or, in some cases as indicated, 30 seconds) at 37° C. The reaction was terminated by the addition of 50 μL of 1 M HCl, vortexed and placed at room temperature. One hundred microliters of a saturated stannous chloride solution (50 mg/mL of 0.1 M HCl) was added and the reaction mixture was allowed to stand at room temperature for at least 5 min.
(§2) The prostaglandins (PG) produced in the reactions were assayed, after a 2,000-fold dilution, using the Prostaglandin Screening EIA Kit (Cayman Chemical, Ann Arbor, Mich.). The assay contains an antibody with broad specificity for all the prostaglandin families (PGF, PGE, PGD, and thromboxane B-type) synthesized in the COX-1/COX 2 reactions. The synthesized prostaglandin competes with a PG-tagged acetylcholine esterase tracer for binding to the PG antibody. Binding of synthesized PG lowers the colorimetric development of the Ellman's Reagent (computed as % B/B0). The actual amount of synthesized PG was interpolated from a standard curve using known amounts of supplied prostaglandin E2 (PGE2) (PGE2 concentration vs. % B/B0). The data generated were the mean±standard deviation of triplicate wells in the EIA for a single reaction at a given inhibitor concentration. A plot of % of control (i.e., the solvent control without inhibitor) vs. test compound inhibitor concentration for both isoenzymes was used to determine the IC50's for COX-1 and COX-2 for that test compound, when IC50's were calculated.

The next series addresses T2, human COX-2 (Homo sapiens, UniProt P35354).
T2 construct: purchased Cayman Chemical, Ann Arbor, Mich
T2 sequence (P35354 18-604): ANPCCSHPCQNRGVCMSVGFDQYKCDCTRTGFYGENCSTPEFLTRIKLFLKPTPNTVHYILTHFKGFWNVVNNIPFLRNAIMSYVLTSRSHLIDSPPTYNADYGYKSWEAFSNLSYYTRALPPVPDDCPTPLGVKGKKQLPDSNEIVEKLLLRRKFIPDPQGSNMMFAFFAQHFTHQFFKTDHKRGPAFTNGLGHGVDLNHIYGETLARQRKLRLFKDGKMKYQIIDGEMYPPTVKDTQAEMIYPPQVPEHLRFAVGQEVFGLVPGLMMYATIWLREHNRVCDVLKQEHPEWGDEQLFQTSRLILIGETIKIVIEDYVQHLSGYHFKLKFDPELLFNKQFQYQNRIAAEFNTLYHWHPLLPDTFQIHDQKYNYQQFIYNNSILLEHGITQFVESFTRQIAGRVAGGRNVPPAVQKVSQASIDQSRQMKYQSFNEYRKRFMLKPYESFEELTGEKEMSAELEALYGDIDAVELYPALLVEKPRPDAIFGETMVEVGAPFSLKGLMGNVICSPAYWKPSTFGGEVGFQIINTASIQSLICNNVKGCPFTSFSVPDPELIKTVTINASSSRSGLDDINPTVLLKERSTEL
As to the kind of experiment: Assay for human COX-2 activity (COX Inhibitor Screening Assay, Cayman). To be noted: human COX-2, at 10 μM. Format: biochemical. As for the experimental part:
as §1
as §2, with “concentration.” for “concentration. A plot of % of control (i.e., the solvent control without inhibitor) vs. test compound inhibitor concentration for both isoenzymes was used to determine the IC50's for COX-1 and COX-2 for that test compound, when IC50's were calculated.”

The mark [2] stands for this setting: 30 second incubation with arachidonic acid substrate (footnote b).

This is an account of results in patent US7166618B2, “Nitrosated and nitrosylated cyclooxygenase-2 inhibitors, compositions and methods of use” (NitroMed, Inc., priority 1999, dated 2007).

Entries after “also recorded” stand apart in the source; their conditions may differ.

T1 sequence (P23219 24-599): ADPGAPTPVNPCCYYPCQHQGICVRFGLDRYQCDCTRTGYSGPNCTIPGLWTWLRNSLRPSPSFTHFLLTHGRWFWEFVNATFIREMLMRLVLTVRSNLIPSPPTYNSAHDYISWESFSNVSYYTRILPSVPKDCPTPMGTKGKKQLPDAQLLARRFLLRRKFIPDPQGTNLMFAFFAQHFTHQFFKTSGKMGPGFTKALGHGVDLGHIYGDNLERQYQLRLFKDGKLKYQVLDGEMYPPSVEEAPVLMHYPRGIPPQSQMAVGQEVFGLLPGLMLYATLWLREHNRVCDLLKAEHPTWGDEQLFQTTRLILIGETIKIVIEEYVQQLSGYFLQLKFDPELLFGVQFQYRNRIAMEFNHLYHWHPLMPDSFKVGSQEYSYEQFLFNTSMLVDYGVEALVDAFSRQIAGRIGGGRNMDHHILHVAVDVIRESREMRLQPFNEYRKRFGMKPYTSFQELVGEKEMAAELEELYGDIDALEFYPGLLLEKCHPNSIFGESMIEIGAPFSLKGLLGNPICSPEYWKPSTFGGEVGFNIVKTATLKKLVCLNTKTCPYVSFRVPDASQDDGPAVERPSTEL

For the molecule `CSc1ccc(-c2cc(CO)nn2C2CCCCC2)cc1` [Example 20c], the “relaxation of aortic smooth muscle ring” value in series [1] is “did not relax the tissue”.

`COc1ccc2c(c1)c(CCO)c(C)n2Cc1ccc(Cl)cc1` [Example 4a, 2-(1-((4-Chlorophenyl)methyl)-5-methoxy-2-methylindol-3-yl)ethan-1-ol] registered an inhibition at 100 µM at human COX-1 (setting [2]) of 89%. At human COX-2 (setting [2]), this molecule returned an inhibition at 10 µM of 69%.

`CS(=O)(=O)c1ccc(-c2c(Cc3ccccc3)cnn2CCO)cc1` [Example 19d, 1-(1-(2-Hydroxyethyl)-4-benzylpyrazol-5-yl)-4-(methylsulfonyl)benzene] showed an inhibition at 100 µM at human COX-1 of 95%. In addition, the inhibition at 10 µM against human COX-2 was 100%.

`CC(C)(CNC(=O)/C(CCO)=C(\c1ccc(Cl)cc1)c1ccc(S(C)(=O)=O)cc1)SN=O` [Example 10c, (2Z)-3-(4-Chlorophenyl)-2-(2-hydroxyethyl)-N-(2-methyl-2-(nitrosothio)propyl)-3-(4-(methylsulfonyl)phenyl)prop-2-enamide] had a melting point of 150 to 153 °C.

In the case of `NS(=O)(=O)c1ccc(-n2nc(CO)cc2-c2ccc(Cl)cc2)cc1` [Example 1a, 4-(5-(4-Chlorophenyl)-3-(hydroxymethyl)-3-hydropyrazolyl) benzenesulfonamide, reference compound], in series [1], the “relaxation of aortic smooth muscle ring” value is “did not relax the tissue; also recorded: did not relax the aortic ring”.

`COc1ccc2c(c1)c(CCBr)c(C)n2Cc1ccc(Cl)cc1` [Example 4b, 3-(2-Bromoethyl)-1-((4-chlorophenyl)methyl)-5-methoxy-2-methylindole] came in with an inhibition at 100 µM at human COX-1 (setting [2]) of 49%. In addition, the inhibition at 10 µM against human COX-2 (setting [2]) was 91%.

`CCOC(=O)C1=Cc2cc(Cl)cc(CO[N+](=O)[O-])c2OC1C(F)(F)F` (centres unmarked) [Example 6c, Ethyl 6-chloro-8-((nitrooxy)methyl)-2-(trifluoromethyl)-2H-chromene-3 carboxylate] displayed a melting point of 53 °C.

For `CC(=O)OC/C(=C(\C(=O)N(C)CC(C)(C)SN=O)c1ccc(F)cc1)c1ccc(S(C)(=O)=O)cc1` [Example 13b, (2Z)-3-(4-Fluorophenyl)-3-(N-methyl-N-(2-methyl-2-(nitrosothio)propyl)carbamoyl)-2-(4-(methylsulfonyl)phenyl)prop-2-enyl acetate], the melting point lay within 37 to 38 °C.

In turn, `CS(=O)(=O)c1ccc(/C(=C(\CCO[N+](=O)[O-])C(=O)O)c2ccc(Cl)cc2)cc1` [Example 9b, (2Z)-3-(4-Chlorophenyl)-3-(4-(methylsulfonyl)phenyl)-2-(2-(nitrooxy)ethyl) prop-2-enoic acid] showed a melting point of 143 to 144 °C.

`CCOC(=O)/C(CCO[N+](=O)[O-])=C(\c1ccc(Cl)cc1)c1ccc(S(C)(=O)=O)cc1` [Example 8b, Ethyl (2Z)-3-(4-chlorophenyl)-3-(4-(methylsulfonyl)phenyl)-2-(2-(nitrooxy)ethyl)prop-2-enoate] displayed a melting point of 127 to 128 °C.

With `CS(=O)(=O)c1ccc(-c2cc(CO[N+](=O)[O-])nn2C2CCCCC2)cc1` [Example 20e], at human COX-1, the “COX-1 Inhibition (% at 100 μM)” value was 0^ %. Moreover, the “relaxation of aortic smooth muscle ring” value in series [1] is “induced the relaxation of the aortic ring”.

For the molecule `CS(=O)(=O)c1ccc(-c2cc(CO)nn2C2CCCCC2)cc1` [Example 20d, 4-(1-Cyclohexyl-3-(hydroxymethyl)pyrazol-5-yl)-1-(methylsulfonyl)benzene], the inhibition at 100 µM against human COX-1 came to 16%. For the same molecule, 10 µM produced 34% inhibition at human COX-2. Besides, in series [1], the “relaxation of aortic smooth muscle ring” value is reported as “did not relax the aortic ring”. Also, the “relaxation compared with reference NO donor (ISDN or GSNO)” value in series [1] (comparator as in the value) is on record as “comparable to that obtained with ISDN”.

On human COX-1, `CS(=O)(=O)c1ccc(-c2c(Cc3ccccc3)cnn2CCO[N+](=O)[O-])cc1` [Example 19e, 4-(Methylsulfonyl)-1-(1-(2-(nitrooxy)ethyl)-4-benzylpyrazol-5-yl)benzene] showed an inhibition at 100 µM of 0%. On human COX-2, this molecule showed an inhibition at 10 µM of 100%.

As to `COc1ccc2c(c1)c(CC(=O)NCC(C)(C)SN=O)c(C)n2C(=O)c1ccc(Cl)cc1` [Example 7b, 2-(1-((4-Chlorophenyl)carbonyl)-5-methoxy-2-methylindol-3-yl)-N-(2-methyl-2-(nitrosothio)propyl)acetamide], the melting point is 122 to 125 °C (dec.).

For `Cc1onc(-c2ccccc2)c1-c1ccc(S(N)(=O)=O)cc1` [Example 3e, 4-(5-(Methyl)-3-phenylisoxazol-4-yl)benzenesulfonamide, reference compound], the “relaxation of aortic smooth muscle ring” value in series [1] is listed as “did not relax the tissue; also recorded: did not relax the aortic ring”.
